Laboratory results as given in ChEMBL document CHEMBL1781972, “Daphnane-type diterpenoids from Trigonostemon howii” (J Nat Prod, 2011).

Tested on: HL-60
Test: Cytotoxicity against human HL60 cells after 72 hrs by MTT method
Assay type: functional, cell-based
Settings: HL-60, 72 h

SMILES: C=C(C)[C@@]1(O)[C@@H]2OC3(c4ccccc4)O[C@H]1[C@@H](C)[C@@]1(O3)[C@H]2[C@H](OC(C)=O)[C@@](C)(OC(=O)c2ccccc2)[C@@H](O)[C@@]2(OC(C)=O)[C@H]1C[C@H](C)[C@@H]2OC(C)=O [TRIGOHOWNIN A]
- IC50: 17 µM

SMILES: C=C(C)[C@@]12OC3(c4ccccc4)O[C@@H]1[C@@H]1[C@H](OC(C)=O)[C@@](C)(O)[C@@H](OC(C)=O)[C@@]4(OC(=O)c5ccccc5)[C@@H](C[C@H](C)[C@@H]4OC(C)=O)[C@@]1(O3)[C@H](C)[C@@H]2OC(C)=O [TRIGOHOWNIN D]
- IC50: 9.3 µM
